According to EP4567035A1, “NOVEL COMPOUND AS HYPOXIA-INDUCIBLE FACTOR 1(HIF-1) INHIBITOR OR VASCULAR ENDOTHELIAL GROWTH FACTOR (VEGF) INHIBITOR, AND PHARMACEUTICAL COMPOSITION COMPRISING SAME” (Nextgen Bioscience Co., Ltd., priority 2022, dated 2024):
Read-outs that look alike come from different tables or passages of the source.

How the values were obtained:
[1] = biological target: T1, HIF-1α (Homo sapiens, UniProt Q16665); assay: Analysis of HIF-1α protein expression (Western blot) in ARPE-19 cells under mixed hypoxic condition; assay type: cell-based; conditions: concentration range at which HIF-1α expression is reduced by 50% vs untreated control
T1 construct: endogenous in cells; host or cells: ARPE-19 (ATCC CRL-2302)
T1 sequence (Q16665 whole entry): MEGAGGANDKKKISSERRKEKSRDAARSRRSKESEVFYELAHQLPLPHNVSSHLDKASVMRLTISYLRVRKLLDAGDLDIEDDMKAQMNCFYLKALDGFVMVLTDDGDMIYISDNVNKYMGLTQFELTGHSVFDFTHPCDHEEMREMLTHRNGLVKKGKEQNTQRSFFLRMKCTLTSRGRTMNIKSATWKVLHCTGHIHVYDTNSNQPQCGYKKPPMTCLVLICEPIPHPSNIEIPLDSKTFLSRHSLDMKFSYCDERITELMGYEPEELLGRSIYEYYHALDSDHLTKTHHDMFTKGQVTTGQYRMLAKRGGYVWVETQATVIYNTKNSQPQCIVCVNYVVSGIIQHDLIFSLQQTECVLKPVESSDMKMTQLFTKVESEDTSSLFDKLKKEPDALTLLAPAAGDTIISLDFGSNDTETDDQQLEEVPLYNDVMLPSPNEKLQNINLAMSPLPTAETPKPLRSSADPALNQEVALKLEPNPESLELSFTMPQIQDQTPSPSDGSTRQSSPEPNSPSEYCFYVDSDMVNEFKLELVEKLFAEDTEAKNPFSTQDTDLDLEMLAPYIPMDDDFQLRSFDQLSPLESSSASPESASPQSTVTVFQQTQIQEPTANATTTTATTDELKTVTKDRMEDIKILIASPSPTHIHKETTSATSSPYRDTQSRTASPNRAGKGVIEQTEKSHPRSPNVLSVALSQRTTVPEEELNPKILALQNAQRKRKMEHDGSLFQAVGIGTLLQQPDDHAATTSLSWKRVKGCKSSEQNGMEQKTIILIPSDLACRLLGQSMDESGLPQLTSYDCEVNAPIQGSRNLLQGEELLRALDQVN
How it was run: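 ARPE-19 cells were pretreated 16 h or 2 h with compound (0.1 nM–10 µM, serum-free DMEM/F12), then held 1 h or 24 h in mixed hypoxia (1% O2 plus CoCl2). HIF-1α was quantified by Western blot against β-actin; the concentration range giving ≥50% reduction vs untreated control was reported.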

[2] = system: VEGF; assay: Evaluation of VEGF protein secretion level (Human VEGF ELISA) in ARPE-19 cell medium under hypoxic conditions; assay type: cell-based; conditions: ARPE-19 cells; pretreated 2 hours, 24 hours hypoxic conditions; secreted VEGF in medium supernatant by ELISA; concentration range reducing VEGF by 50% vs untreated control; read-out: IC50 VEGF
How it was run: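 Human ARPE-19 cells were pretreated 2 h with compound (0.1 nM–10 µM, in DMEM/F12 with 1% FBS), then held 24 h in hypoxia (1% O2, 5% CO2). Secreted VEGF in the supernatant was quantified by ELISA (A450). The value is the concentration range giving ≥50% VEGF reduction versus untreated control.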

[3] = values marked * in the table, mixed hypoxic condition (1% oxygen + CoCl2) for 24 hours, read-out: IC50 HIF-1α, Hypoxia(24h)
[4] = mixed hypoxic condition (1% oxygen + CoCl2) for 1 hour, read-out: IC50 HIF-1α Hypoxia (1 hour)

| Compound | DC50 [1, 3] [nM] | IC50 [2] [nM] | DC50 [1, 4] [nM] |
| --- | --- | --- | --- |
| O=C(NCc1cc(F)cc(-n2cc(-c3ccc(F)cc3)cn2)c1)c1ncnc2nc(C3CCCC3)[nH]c12 [Example 149, 8-Cyclopentyl-N-(3-fluoro-5-(4-(4-fluorophenyl)-1H-pyrazol-1-yl)benzyl)-7H-purine-6-carboxamide] | 100 to 1000 | > 10000 |  |
| Cn1cc(C(=O)Nc2cc(F)cc(CNC(=O)c3ncnc4nc(C5CCCC5)[nH]c34)c2)cn1 [Example 5, 8-Cyclopentyl-N-(3-fluoro-5-(1-methyl-1H-pyrazole-4-carboxamido)benzyl)-7H-purine-6-carboxamide] |  | 1000 to 10000 | 100 to 1000 |
| O=C(NCc1cc(F)cc(Nc2ccon2)c1)c1ncnc2nc(C3CCCC3)[nH]c12 [Example 121, 8-Cyclopentyl-N-(3-fluoro-5-(isoxazol-3-ylamino)benzyl)-7H-purine-6-carboxamide] | 100 to 1000 | > 10000 |  |
| O=C(NCc1cc(F)cc(-c2cnsc2)c1)c1ncnc2nc(C3CCCC3)[nH]c12 [Example 38, 8-Cyclopentyl-N-(3-fluoro-5-(isothiazol-4-yl)benzyl)-7H-purine-6-carboxamide] |  | 100 to 1000 | < 100 |
| COC(=O)C(Cc1ccc(-n2cc(-c3cc(F)cc(CNC(=O)c4ncnc5nc(C6CCCC6)[nH]c45)c3)cn2)cc1)NC(=O)c1ncnc2nc(C3CCCC3)[nH]c12 (stereo not shown) [Example 150, Methyl 2-(8-cyclopentyl-7H-purine-6-carboxamido)-3-(4-(4-(3-((8-cyclopentyl-7H-purine-6-carboxamido)methyl)-5-fluorophenyl)-1H-pyrazol-1-yl)phenyl)propanoate] | 100 to 1000 | > 10000 |  |
| O=C(NCc1cc(F)cc(-c2cnn(-c3ccc(F)cc3)c2)c1)c1ncnc2nc(C3CC(F)C3)[nH]c12 (single isomer, unassigned) [102(A), N-(3-Fluoro-5-(1-(4-fluorophenyl)-1H-pyrazol-4-yl)benzyl)-8-(3-fluorocyclobutyl)-7H-purine-6-carboxamide] | 1000 to 10000 | > 10000 |  |
| O=C(NCc1cc(F)cc(N2CCN(c3ccc(F)cc3)CC2)c1)c1ncnc2nc(C3CCCC3)[nH]c12 [Example 131, 8-Cyclopentyl-N-(3-fluoro-5-(4-(4-fluorophenyl)piperazin-1-yl)benzyl)-7H-purine-6-carboxamide] | 1000 to 10000 | > 10000 |  |
| O=C(NCc1cc(F)cc(-c2cnn(-c3ccc(F)cc3)c2)c1)c1ncnc2nc(C34CC(C3)C4)[nH]c12 [Example 99, 8-(Bicyclo[1.1.1]pentan-1-yl)-N-(3-fluoro-5-(1-(4-fluorophenyl)-1H-pyrazol-4-yl)benzyl)-7H-purine-6-carboxamide] | 1000 to 10000 | > 10000 |  |
| CC(=O)c1ccc(-n2cc(-c3cc(F)cc(CNC(=O)c4ncnc5nc(C6CCCC6)[nH]c45)c3)cn2)cc1 [Example 123, N-(3-(1-(4-acetylphenyl)-1H-pyrazol-4-yl)-5-fluorobenzyl)-8-cyclopentyl-7H-purine-6-carboxamide] | < 100 | < 100 |  |
| O=C(NCc1cc(F)cc(-c2cnn(-c3ccc(F)cc3)c2)c1)c1ncnc2nc(C3CC4CCC3C4)[nH]c12 (stereo not shown) [Example 114, 8-(Bicyclo[2.2.1]heptan-2-yl)-N-(3-fluoro-5-(1-(4-fluorophenyl)-1H-pyrazol-4-yl)benzyl)-7H-purine-6-carboxamide] | 100 to 1000 | 100 to 1000 |  |
| C[C@H](NC(=O)c1ncnc2nc(C3CCCC3)[nH]c12)c1cccc(-c2cnn(C)c2)c1 [Example 4, (S)-8-cyclopentyl-N-(1-(3-(1-methyl-1H-pyrazol-4-yl)phenyl)ethyl)-7H-purine-6-carboxamide] |  | 1000 to 10000 | 100 to 1000 |
| CN1CCC(Nc2cc(F)cc(CNC(=O)c3ncnc4nc(C5CCCC5)[nH]c34)c2)CC1 [Example 129, 8-Cyclopentyl-N-(3-fluoro-5-((1-methylpiperidin-4-yl)amino)benzyl)-7H-purine-6-carboxamide] | 1000 to 10000 | > 10000 |  |
| O=C(NCc1cc(F)cc(-c2cnn(-c3ccc(F)cc3)c2)c1)c1ncnc2nc(C3CCC(F)(F)C3)[nH]c12 (stereo not shown) [Example 80, 8-(3,3-Difluorocyclopentyl)-N-(3-fluoro-5-(1-(4-fluorophenyl)-1H-pyrazol-4-yl)benzyl)-7H-purine-6-carboxamide] | < 100 | < 100 |  |
| O=C1CC[C@H](c2nc3ncnc(C(=O)NCc4cc(F)cc(-c5cnn(-c6ccc(F)cc6)c5)c4)c3[nH]2)C1 [Example 88, (S)-N-(3-fluoro-5-(1-(4-fluorophenyl)-1H-pyrazol-4-yl)benzyl)-8-(3-oxocyclopentyl)-7H-purine-6-carboxamide] | 100 to 1000 | 100 to 1000 |  |
| O=C(NCc1cc(F)cc(Nc2ccncc2)c1)c1ncnc2nc(C3CCCC3)[nH]c12 [Example 16, 8-Cyclopentyl-N-(3-fluoro-5-(pyridin-4-ylamino)benzyl)-7H-purine-6-carboxamide] |  | 100 to 1000 | < 100 |

Next, values leading:

| DC50 [1, 3] [nM] | IC50 [2] [nM] | DC50 [1, 4] [nM] | Compound |
| --- | --- | --- | --- |
|  | 100 to 1000 | < 100 | O=C(NCc1cc(F)cc(-c2cnn(C(F)(F)F)c2)c1)c1ncnc2nc(C3CCCC3)[nH]c12 [Example 1, 8-Cyclopentyl-N-(3-fluoro-5-(1-(trifluoromethyl)-1H-pyrazol-4-yl)benzyl)-7H-purine-6-carboxamide] |
| > 10000 | > 10000 |  | COC(=O)C1CC(c2nc3ncnc(C(=O)NCc4cc(F)cc(-c5cnn(-c6ccc(F)cc6)c5)c4)c3[nH]2)C1 (single isomer, unassigned) [103(A), Methyl 3-(6-((3-fluoro-5-(1-(4-fluorophenyl)-1H-pyrazol-4-yl)benzyl)carbamoyl)-7H-purin-8-yl)cyclobutanecarboxylate] |
|  | 100 to 1000 | < 100 | COc1ccc(Nc2cc(F)cc(CNC(=O)c3ncnc4nc(C5CCCC5)[nH]c34)c2)cc1 [Example 35, 8-Cyclopentyl-N-(3-fluoro-5-((4-methoxyphenyl)amino)benzyl)-7H-purine-6-carboxamide] |
| < 100 | < 100 |  | O=C(NCc1cc(F)cc(-c2cnn(-c3cscn3)c2)c1)c1ncnc2nc(C3CCCC3)[nH]c12 [Example 141, 8-Cyclopentyl-N-(3-fluoro-5-(1-(thiazol-4-yl)-1H-pyrazol-4-yl)benzyl)-7H-purine-6-carboxamide] |
| < 100 | 100 to 1000 |  | O=C(NCc1cc(F)cc(-c2cnn(-c3cccc(F)c3)c2)c1)c1ncnc2nc(C3CCC(F)(F)C3)[nH]c12 (stereo not shown) [Example 81, 8-(3,3-Difluorocyclopentyl)-N-(3-fluoro-5-(1-(3-fluorophenyl)-1H-pyrazol-4-yl)benzyl)-7H-purine-6-carboxamide] |
| 100 to 1000 | > 10000 |  | O=C(O)c1ccc(Nc2cc(F)cc(CNC(=O)c3ncnc4nc(C5CCCC5)[nH]c34)c2)cc1 [Example 133, 4-((3-((8-Cyclopentyl-7H-purine-6-carboxamido)methyl)-5-fluorophenyl)amino)benzoic acid] |
|  | 100 to 1000 | < 100 | COc1ccc(Nc2cc(F)cc(CNC(=O)c3ncnc4nc(C5CCCC5)n(C)c34)c2)cc1 [Example 36, 8-Cyclopentyl-N-(3-fluoro-5-((4-methoxyphenyl)amino)benzyl)-7-methyl-7H-purine-6-carboxamide] |
|  | 100 to 1000 | < 100 | CS(=O)(=O)c1ccc(-n2cc(-c3cc(F)cc(CNC(=O)c4ncnc5nc(C6CCCC6)[nH]c45)c3)cn2)cc1 [Example 28, 8-Cyclopentyl-N-(3-fluoro-5-(1-(4-(methylsulfonyl)phenyl)-1H-pyrazol-4-yl)benzyl)-7H-purine-6-carboxamide] |
